Data taken from ChEMBL document CHEMBL1134188, “Evidence for gliotoxin-glutathione conjugate adducts” (Bioorg Med Chem Lett, 2001).

Test: The equilibrium constant pair at a pH of 7.0 and temperature of 25 degree Centigrade
Conditions: pH 7

With `CN1C(=O)[C@]23CC4=CC=C[C@H](O)[C@H]4N2C(=O)[C@@]1(CO)SS3.N[C@@H](CS)C(=O)O` [GLIOTOXIN/CYSTEINE] as the compound, how does the Keq read?
The Keq was 400 M⁻¹.
